Data: US20090176817A1, “Method of Treatment of Diarrhea-Predominant Irritable Bowel Syndrome in a Subject” (priority 2005, published 2009)
Where two headings read alike, the source gives them in different places.

Test system: diarrhea-predominant IBS subjects
Format: in vivo, human
Set-up: key to Daily stool consistency score, mean change from Baseline at end of treatment / Mean stool consistency score at end of treatment / Stool consistency, mean change from rerandomization Baseline: stool consistency on a seven-point daily diary scale
Description: Studies S24 1.3.OO6, S24 1.3.0 1 1, and S24 1.3.009 used the following efficacy measurements: • The subjects answered the following three questions with “yes” or “no” using a phone diary at the end of each week: • a) During the last week, did you experience adequate relief of your IBS symptoms, such as abdominal pain, abdominal discomfort, abnormal bowel habits? • b) During the last week, did you experience adequate relief of your abdominal pain and/or discomfort? • c) During the last week, did you experience adequate relief of your abnormal bowel habits? • The subjects rated the following symptoms using the phone diary at the end of each day: • abdominal pain/discomfort (five-point scale); • stool consistency (seven-point Bristol Stool Scale); • stool frequency (number of bowel movements each day); • urgency (five-point scale); • straining (yes or no); • feeling of incomplete defecation (yes or no); • bloating or feeling of abdominal distension (five-point scale). • In Studies S241 A006 and S241.3.009, subjects completed the IBS-QOL Survey at Baseline (Day 1) and at the end of treatment. In Study S24 1.3.0 1 1, subjects completed the IBS-QOL Survey at Baseline (Day 1), at the end of the three-month treatment period, and at the end of rerandomized treatment.
Other secondary efficacy parameters for all three studies included: • Responder rate for the weekly diary questions on adequate relief at each month, where a responder for a month (monthly responder) was defined as a subject who answered the weekly question with “yes” at least twice for that month. The responder rate was the percentage of responders within a treatment group. The all-month responder rate for the weekly diary questions on adequate relief was also evaluated, where an all-month responder was defined as a subject who answered the weekly question with “yes” at least twice for each month. The all-month responder rate was the percentage of all-month responders within a treatment group; • Adequate relief rate for the weekly diary questions was calculated for each subject as the number of weekly assessments with adequate relief (“yes”) divided by the total number of weekly assessments; • Percentage of subjects with adequate relief for the weekly diary questions at each week; • Daily diary questions regarding abdominal pain/discomfort (five-point scale), stool consistency (seven-point scale), stool frequency (number of bowel movements each day), straining (yes or no), urgency (five-point scale), feeling of incomplete evacuation (yes or no), and bloating or feeling of abdominal distention (five-point scale); • QOL data assessed by the IBS-QOL questionnaire; and • Question to determine the interruption of activities.

Cc1nccn1C[C@H]1CCc2c(c3cccc4c3n2CCC4)C1=O [Cilansetron, (R)-(−)-4,5,6,8,9,10-hexahydro-10-[(2-methyl-1H-imidazol-1-yl)methyl]-11H-pyrido-[3,2,1-jk]-carbazol-11-one]
Mean number of stools per day at end of treatment (2 mg TID): 2.41 stools per day
Abdominal pain/discomfort, mean change from rerandomization Baseline (C/C): −0.09
Bloating, mean change from rerandomization Baseline (C/C): −0.05
Incomplete evacuation, mean change from Rerandomization Baseline (C/C): 0.01
Stool consistency, mean change from rerandomization Baseline (C/C): −0.09
Stools per day, mean change from rerandomization Baseline (C/C): −0.02
Urgency, mean change from rerandomization Baseline (C/C): −0.05
Abdominal pain/discomfort, mean change from rerandomization Baseline (C/P): 0.16
Bloating, mean change from rerandomization Baseline (C/P): 0.16
Incomplete evacuation, mean change from Rerandomization Baseline (C/P): 0.05
Stool consistency, mean change from rerandomization Baseline (C/P): 0.55
Stools per day, mean change from rerandomization Baseline (C/P): 0.22
Urgency, mean change from rerandomization Baseline (C/P): 0.25
Abdominal pain/discomfort, mean change from rerandomization Baseline (P/C): −0.08
Bloating, mean change from rerandomization Baseline (P/C): −0.03
Incomplete evacuation, mean change from Rerandomization Baseline (P/C): −0.02
Stool consistency, mean change from rerandomization Baseline (P/C): −0.84
Stools per day, mean change from rerandomization Baseline (P/C): −0.31
Urgency, mean change from rerandomization Baseline (P/C): −0.27
Median rate of urgency-free days (end of treatment): 0.25
Median rate of pain-free days (end of treatment (last two weeks)): 0.15
Bloating or abdominal distention score, mean change from Baseline at end of treatment (in vivo): −0.43
Daily abdominal pain/discomfort score, mean change from Baseline at end of treatment (in vivo): −0.69
Daily stool consistency score, mean change from Baseline at end of treatment (in vivo): −1.02
Daily urgency score, mean change from Baseline at end of treatment (in vivo): −0.78
Feeling of incomplete evacuation, mean change from Baseline at end of treatment (in vivo): −0.20
Mean stool consistency score at end of treatment (in vivo): 4.28
Mean straining, mean change from Baseline at end of treatment (in vivo): 0.05
Stools per day, mean change from Baseline at end of treatment (in vivo): −0.91
Median rate of pain-free days (three-month period): 0.22
Median rate of urgency-free days (three-month period): 0.31
